Data from patent US8309058B2, “Method for obtaining highly luminescent lanthanide complexes” (Commissariat a l'Energie Atomique, priority 2005, dated 2012).
Like-named read-outs stand apart in the source and are kept apart here. Blank lines part the entries; values can stand above or below the compound they belong to.

Legend:
[1] = potentiometric titration: de-protonation constants of the ligand; type: physicochemical; settings: 25.0° C., μ=0.1 M KCl, listed as H6tpaen
Source text: Besides, five de-protonation constants [pKa1=2.8 (1), pKa22=3.2 (1), pKa3=3.9 (2), pKa4=5.1 (1) and pKa5=7.8 (1)] may be determined for the ligand H6tpaen by potentiometric titration as well the stability constants of the corresponding complexes of Eu^III and of CaII [log βEuL=15.3(3) for the complex of Eu^III and log βCaL=8.5 (5)].
For potentiometric titration, the solutions of the complex of Eu(III) may be prepared by dissolution of a determined amount of EuCI3.6H2O in water. The de-protonation constants of H6tpaen are given by Kai=[H6-iL]^2-1/[H5−iL]^1-i[H]^+, and as already mentioned previously, the values obtained are pKa1=2.8(1), pKa2=3.2(1), pKa3=3.9(2), pKa44=5.1(1) and pKa5=7.8(1).
The solutions of Ca(II) could be prepared by dissolution of CaCI2 in water. The exact concentration of the ion Ca^2+ can be determined by colorimetric titration at a pH 12.5 using as a reference a solution of H2Na2edta and calgonite as an indicator. 20 mL of a solution of H4tpaen (3,10−^4 M), acidified (pH˜2.5) 1:1 Ln:mixture of ligands ([L] 3.10−^4 M), acidified (pH˜2.5) 1:1 Ca:mixture of ligands ([L] 7.10−^5M) are titrated in a cell with a thermostat (25.0° C.+/−0.1° C.) under Argon after addition of a solution of KOH 0.1 M.
The ionic load was determined with KCl (μ=00.1 M). The titrations have been conducted with a Metrohm 751 GPD Titrino potentiometer fitted with a glass pH electrode. The electrode system was calibrated before each measurement.
The electromotive load is given by the equation E=E°+sp[H^+] wherein E° and s are determined by titration of a known amount de HCl with 0.1 M KOH at μ=0.1 M (KCl), using the zone of the acid for the titration. The value used for the ionic product of water was pKw=13.77. More than 50 data points have been collected for each experiment.

[2] = potentiometric titration: stability of the Eu(III) complex; type: physicochemical
Source text: For potentiometric titration, the solutions of the complex of Eu(III) may be prepared by dissolution of a determined amount of EuCI3.6H2O in water. […] The exact concentration of the ion Eu^3+ could be determined by colorimetric titration in an acetate buffer (pH=4.5), using as a reference a solution of […] orange xylenol as an indicator. The solutions of Ca(II) could be prepared by dissolution of CaCI2 in water. The exact concentration of the ion Ca^2+ can be determined by colorimetric titration at a pH 12.5 using as a reference a solution of […] calgonite as an indicator. 20 mL of a solution of […] (3,10-^4 M), acidified (pH 2.5) 1:1 Ln:mixture of ligands ([L] 3.10-^4 M), acidified (pH 2.5) 1:1 Ca:mixture of ligands ([L] 7.10-^5M) are titrated in a cell with a thermostat (25.0° C.+/-0.1° C.) under Argon after addition of a solution of KOH 0.1 M. The ionic load was determined with KCl (μ=00.1 M). The titrations have been conducted with a Metrohm 751 GPD Titrino potentiometer fitted with a glass pH electrode. The electrode system was calibrated before each measurement. The electromotive load is given by the equation E=E°+sp[H^+] wherein E° and s are determined by titration of a known amount de HCl with 0.1 M KOH at μ=0.1 M (KCl), using the zone of the acid for the titration. […] More than 50 data points have been collected for each experiment.

[3] = potentiometric titration: stability of the Ca(II) complex; type: physicochemical
Protocol: The solutions of Ca(II) could be prepared by dissolution of CaCI2 in water. The exact concentration of the ion Ca^2+ can be determined by colorimetric titration at a pH 12.5 using as a reference a solution of […] calgonite as an indicator. 20 mL of a solution of […] (3,10-^4 M), acidified (pH 2.5) 1:1 Ln:mixture of ligands ([L] 3.10-^4 M), acidified (pH 2.5) 1:1 Ca:mixture of ligands ([L] 7.10-^5M) are titrated in a cell with a thermostat (25.0° C.+/-0.1° C.) under Argon after addition of a solution of KOH 0.1 M. The ionic load was determined with KCl (μ=00.1 M). The titrations have been conducted with a Metrohm 751 GPD Titrino potentiometer fitted with a glass pH electrode. The electrode system was calibrated before each measurement. The electromotive load is given by the equation E=E°+sp[H^+] wherein E° and s are determined by titration of a known amount de HCl with 0.1 M KOH at μ=0.1 M (KCl), using the zone of the acid for the titration. […] More than 50 data points have been collected for each experiment.

[4] = stability of the Gd complex (pGd); type: physicochemical; settings: pH 7.4, [M]total=1 μM, [ligand]total=10 μM
[5] = absorption / excitation spectra; type: physicochemical
Source text: (full line) and [Tb(tpaen)] (dotted line) after excitation of the ligand at 274 nm.
An efficient energy transfer from the ligand to the metal is put forward by the resemblance between the excitation and absorption spectra of the Europium and Terbium complexes.

[6] = cited from earlier work
[7] = cited from earlier work; remark: listed apart in the source
[8] = pH 7.4, [M]total=1 μM, [ligand]total=10 μM

de-protonation constant pKa1 [1]: 2.8 (1) | de-protonation constant pKa2 [1]: 3.2 (1) | de-protonation constant pKa3 [1]: 3.9 (2) | de-protonation constant pKa4 [1]: 5.1 (1) | de-protonation constant pKa5 [1]: 7.8 (1) | pEu (−log [M]free) [2, 8]: 15.7 | pCa (−log [M]free) [3, 8]: 8.5 | pGd (−log [M]free) [4]: 15.0 | λexc [5]: 270 nm | ε ([5]; at λexc): 15800 M⁻¹ cm⁻¹
Compound: O=C(O)c1cccc(CN(CCN(Cc2cccc(C(=O)O)n2)Cc2cccc(C(=O)O)n2)Cc2cccc(C(=O)O)n2)n1 [tpaen, N,N,N′,N′-tetrakis[(6-carboxypyridine-2-yle)methyl]-ethylene diamine]
selectivity for Europium with respect to calcium ([2]; from pEu versus pCa): good selectivity regarding Europium with respect to calcium

Compound: cresyl violet
Qabs of the standard ([6]; methanol): 54%

Compound: O=C(O)c1ccccc1C1=c2cc3c4c(c2Oc2c1cc1c5c2CCCN5CCC1)CCC[N+]=4CCC3.[Cl-] [rhodamine 101]
Qabs of the standard ([6]; ethanol): 100%

Compound: O=C(O)CN(CCN(CC(=O)O)CC(=O)O)CC(=O)O [EDTA, tetra acetic diamine ethylene acid]
pEu, comparison value for EDTA [7]: 14.0

stability constant log βCaL ([3]; potentiometric titration, 25.0° C., μ=0.1 M KCl): 8.5 (5)
Compound: O=C([O-])c1cccc(CN(CCN(Cc2cccc(C(=O)O)n2)Cc2cccc(C(=O)O)n2)Cc2cccc(C(=O)[O-])n2)n1.[Ca+2] [Catpaen]
